The values that follow come from patent publication US10532068B2, “Dual molecular delivery of oligonucleotides and peptide containing conjugates” (Merck Sharp & Dohme Corp., priority 2013, dated 2020).

The test system of the assay is CTNNB1. The assay is described as follows: In vivo evaluation in mice: liver mRNA knockdown measurement (TaqMan qPCR). Also noted: species or system CD-1 mice. As to conditions: mice. The protocol: Female CD-1 mice (Charles River) were injected in accordance with either a sequential dosing paradigm or a co-dosing paradigm. In the sequential dosing paradigm, the targeted siRNA (SCE) is dosed at t=0 and the targeted peptide is separately dosed up to 2 hr before the SCE (−2 hr) or up to 24 hr after the SCE (+24 hr). In the co-dosing paradigm, the SCE and peptides are co-formulated and dosed together in the same formulation as a single injection at t=0. The mice were dosed either by intravenous (i.v.) or subcutaneous (s.c.) injection of SCE and peptide. For the i.v. doses, the compounds were injected into the tail vein of the mice. For the s.c. doses, the compounds were injected in the subcutaneous space on the back of the mouse between the shoulder blades. At the indicated harvest times (measured from t=0 when the siRNA was dosed, regardless of when the peptide was dosed), the animals were sacrificed and 3 mm liver punches were collected, preserved in RNAlater (Ambion), and stored at 4° C. Separate 5 mm liver punches were collected, placed in 96-well plates, frozen on dry ice, and stored at −80° C. until use.
The 3 mm liver punches were removed from RNAlater and homogenized in Trizol (Invitrogen) using a bead mill tissue lyser (Qiagen); disruption was performed for two 5-minute cycles at 30 Hz. RNA extraction was performed using 1-bromo-2-chloropropane (Acros Organics) and total RNA was isolated from the aqueous phase using the MagMax RNA isolation method (Ambion). […] TaqMan qPCR analysis was performed with an ABI 7900 Real-Time PCR System using TaqMan Fast Advanced Master Mix (Applied Biosystems). All TaqMan probes and primers for CTNNB1 and PPIB (housekeeping gene) were purchased from Applied Biosystems as pre-validated gene expression assays. Results are calculated by the comparative Ct method, where the difference between the CTNNB1 Ct value and the PPIB Ct value (ΔCt) is calculated and then further normalized relative to the PBS control by taking a second difference (ΔΔCt), as described previously (1).

Where [1] appears, read: Table 6, sequential, peptide IV 15 min after siRNA IV, TGN-L-siRNA-III 0.25 mg/kg, peptide 10 mg/kg.
Setting [2] is: Table 6, sequential, peptide IV 15 min after siRNA IV, TGN-L-siRNA-III 0.5 mg/kg, peptide 5 mg/kg.
Setting [3] is: Table 6, sequential, peptide IV 15 min after siRNA IV, TGN-L-siRNA-III 0.25 mg/kg, peptide 5 mg/kg.
The mark [4] stands for this setting: Table 6, sequential, peptide IV 15 min after siRNA IV, TGN-L-siRNA-II 0.25 mg/kg, peptide 1 mg/kg.
Setting [5] is: Table 6, sequential, peptide IV 15 min after siRNA IV, TGN-L-siRNA-II 0.25 mg/kg, peptide 3 mg/kg.

Where no end group is shown, it is not given here. [ ]: non-standard residue; d: D form. TGN = not defined here

Take “TGN-S-S-SEQ ID NO: 1652 (D) ([dC](TGN)[dE][dL][dF][dE][dE][dL][dA][dE][dL][dL][dW][dE]G[dL][dE][dN][dL][dI][dD][dW]G[dN][dS]; reading uncertain; also: Cys disulfide-linked to TGN peptide; listed as Homo sapiens)”: the “In vivo mRNA knockdown (%)” value under setting [1] stood at 37%. Regarding “TGN-S-S-SEQ ID NO: 1653 (D) ([dC](TGN)G[dL][dF]G[dE][dI][dA][dE][dL][dI][dW][dE]G[dL][dE][dN][dL][dI][dD][dW]G[dN]G; reading uncertain; also: Cys disulfide-linked to TGN peptide; listed as Homo sapiens)”, the “In vivo mRNA knockdown (%)” value reads like this: under setting [1], 63%; (Table 6, sequential, peptide IV 15 min after siRNA IV, TGN-L-siRNA-III 0.25 mg/kg, peptide 50 mg/kg) 69%. In the case of “TGN-S-S-SEQ ID NO: 1712 (L) (C(TGN)FLGALWKALSELLKNLIDWWNG; reading uncertain; also: Cys disulfide-linked to TGN peptide; listed as Homo sapiens)”, under setting [2], the “In vivo mRNA knockdown (%)” value turned out to be 34%.

With “TGN-S-S-SEQ ID NO: 1713 (L): TGN-S-S-peptide, peptide CGL-R6H-GELEEL-S7H-EEGLENLIDWWNG (STAPLED)”, the “In vivo mRNA knockdown (%)” value turned out to be 0% (Table 6, sequential, peptide IV 15 min after siRNA IV, TGN-L-siRNA-III 0.25 mg/kg, peptide 2 mg/kg) and 2% under setting [1]. Take “TGN-S-S-SEQ ID NO: 1716 (L) (C(TGN)GLFEELAGLLWHGLKNLIDWWNG; reading uncertain; also: Cys disulfide-linked to TGN peptide; listed as Homo sapiens)”: the “In vivo mRNA knockdown (%)” value under setting [2] is given as 39%.

On to “TGN-S-S-SEQ ID NO: 1717(L): TGN-S-S-peptide, peptide CFLGALFHALSHLLENLIDWWNG (C(TGN)FLGALFHALSHLLENLIDWWNG; reading uncertain; also: Cys disulfide-linked to TGN peptide; listed as Homo sapiens)”, for which the “In vivo mRNA knockdown (%)” value under setting [2] was determined as 16%. For the substance “TGN-S-S-SEQ ID NO: 1719 (L) (C(TGN)GLFAEIEELIWEGLENLIDWWNQ; reading uncertain; also: Cys disulfide-linked to TGN peptide; listed as Homo sapiens)”, the “In vivo mRNA knockdown (%)” value under setting [3] turned out to be 25%. Take “TGN-S-S-SEQ ID NO: 1725 (L) (C(TGN)SSAWWSYWPPVA; reading uncertain; also: Cys disulfide-linked to TGN peptide; listed as Homo sapiens)”: the “In vivo mRNA knockdown (%)” value under setting [1] came out at 19%. Same read-out and setting: under “TGN-S-S-SEQ ID NO: 1726(D) ([dC](TGN)G[dL][dF][dA][dV][dI][dK][dK][dV][dA][dS][dV][dI]GG[dL]; reading uncertain; also: Cys disulfide-linked to TGN peptide; listed as Homo sapiens)” stands 23%. On the same count and under the same terms, the result for “TGN-S-S-SEQ ID NO: 1727 (D) ([dC](TGN)G[dL][dF][dA][dV][dI][dH][dH][dV][dA][dS][dV][dI]GG[dL]; reading uncertain; also: Cys disulfide-linked to TGN peptide; listed as Homo sapiens)” reads 26%; that for “TGN-S-S-SEQ ID NO: 1728(D) ([dC](TGN)G[dL][dF][dA][dV][dI][dE][dE][dV][dA][dS][dV][dI]GG[dL]; reading uncertain; also: Cys disulfide-linked to TGN peptide; listed as Homo sapiens)”, 23%; that for “TGN-S-S-SEQ ID NO: 1729 (L) (C(TGN)GPSQPTYPGDDAPVRDLIRFYRDLRRYLNVVTRHRY; reading uncertain; also: Cys disulfide-linked to TGN peptide; listed as Homo sapiens)”, 10%. As for “TGN-S-S-SEQ ID NO: 1730 (D): TGN-S-S-peptide, peptide CGIGAVLHVLTTGLPALISWIKRKRQQ”, under setting [1], the “In vivo mRNA knockdown (%)” value is given as 43%. Still for that read-out and setting: under “TGN-S-S-SEQ ID NO: 1731(D): TGN-S-S-peptide, peptide CGIGAVLHVLTTGLPALISWIHHHHQQ” stands 30%. As for “TGN-S-S-SEQ ID NO: 1732 (D): TGN-S-S-peptide, peptide AC-GIFEAIAGLLKINFKC”, the “In vivo mRNA knockdown (%)” value under setting [3] was determined as 35%. For “TGN-S-S-SEQ ID NO: 1733 (D): TGN-S-S-peptide, peptide AC-GLFGALAEALAEALAEHLAEALAEALEALAAGGSC”, the “In vivo mRNA knockdown (%)” value runs as follows: under setting [4], 60%; under setting [5], 75%; (Table 6, sequential, peptide IV 15 min after siRNA IV, TGN-L-siRNA-II 0.25 mg/kg, peptide 10 mg/kg) 58%; (Table 6, sequential, peptide IV 15 min after siRNA IV, TGN-L-siRNA-II 0.25 mg/kg, peptide 50 mg/kg) 50%; under setting [3], 73%; (Table 7, TGN-L-siRNA-II 0.25 mg/kg, peptide 3 mg/kg, Sequential dosing-IV (peptide 15 min after siRNA)) 69%. Also, the “In vivo mRNA knockdown (%)” value is listed as 47% (Table 7, TGN-L-siRNA-II 0.25 mg/kg, peptide 3 mg/kg, Sequential dosing-SC (peptide 15 min after siRNA)); 58% (Table 7, TGN-L-siRNA-II 0.25 mg/kg, peptide 10 mg/kg, Sequential dosing-IV (peptide 15 min after siRNA)); 67% (Table 7, TGN-L-siRNA-II 0.25 mg/kg, peptide 10 mg/kg, Sequential dosing-SC (peptide 15 min after siRNA)). For “TGN-S-S-SEQ ID NO: 1734 (D): TGN-S-S-peptide, peptide AC-GLFEAIEGFIENGWEGLAELAEALEALAAGGSC”, under setting [3], the “In vivo mRNA knockdown (%)” value worked out at 61%.

With “TGN-S-S-SEQ ID NO: 1738 (D) (G[dL][dF]G[dE][dI][dE][dE][dL][dI][dE][dE]G[dL][dE][dN][dL][dI][dD][dW]G[dN]G[dL][dA][dE][dL][dA][dE][dA][dL][dE][dA][dL][dA][dA]GG[dS][dC]; not fully specified; also: disulfide to TGN peptide via C-terminal Cys; listed as Homo sapiens)”, the “In vivo mRNA knockdown (%)” value runs as follows: under setting [4], 25%; under setting [5], 44%. The like results for “TGN-S-S-SEQ ID NO: 1740 (D): TGN-S-S-peptide, peptide GLFEAIEGFIENGWEGLAELAEALEALAAGGSC (G[dL][dF][dE][dA][dI][dE]G[dF][dI][dE][dN]G[dW][dE]G[dL][dA][dE][dL][dA][dE][dA][dL][dE][dA][dL][dA][dA]GG[dS][dC]; not fully specified; also: disulfide to TGN peptide via C-terminal Cys; listed as Homo sapiens)” were, in that order, 23% and 42%. On to “TGN-S-S-SEQ ID NO: 1740 (L): TGN-S-S-peptide, peptide GLFEAIEGFIENGWEGLAELAEALEALAAGGSC (GLFEAIEGFIENGWEGLAELAEALEALAAGGSC(TGN); reading uncertain; also: TGN attached via disulfide (S-S); listed as Homo sapiens)”, for which, under setting [5], the “In vivo mRNA knockdown (%)” value stood at 20%. The same measure, in the same setting: the result for “TGN-S-S-SEQ ID NO: 1741(L): TGN-S-S-peptide, peptide GLFGALAEALAEALAEHLAEALAEALEALAAGGSC (GLFGALAEALAEALAEHLAEALAEALEALAAGGSC(TGN); reading uncertain; also: TGN attached via disulfide (S-S); listed as Homo sapiens)” reads 24%. On to “TGN-S-S-SEQ ID NO: 1744 (D) ([dC][dE][dE][dN][dW][dI]G[dL][dF]GGG[dN][dI][dW][dE][dE][dE][dE][dI][dL][dD][dL][dL]; also: disulfide to TGN peptide via N-terminal Cys; listed as Homo sapiens)”, for which the “In vivo mRNA knockdown (%)” value reads like this: (Table 6, sequential, peptide IV 15 min after siRNA IV, TGN-L-siRNA-III 0.5 mg/kg, peptide 2 mg/kg) 28%; (Table 6, sequential, peptide IV 15 min after siRNA IV, TGN-L-siRNA-III 0.5 mg/kg, peptide 10 mg/kg) 33%.
